Experiments:
BML-17 = assay: Hemagglutination-inhibition test with BML-17 and trypsin-treated rabbit erythrocytes; type: cell-based, Bryopsis maxima; details: for Minimum inhibitory concentration: inhibition of BML-17 (agglutination titer 4) agglutination of TRBC; for Inhibition of agglutinating activity of BML-17 (in words): TRBC
Experimental: Hemagglutinating activity was measured using a micro titer method. Twenty-five μl of serially two-fold dilutions of each purified fraction solution adjusted with saline was placed on a micro titer plate. Each diluted solution was supplemented with 25 μl of a 2% suspension of trypsin-treated rabbit erythrocytes and was gently stirred. The mixture was allowed to stand at room temperature for 1.5 hours and agglutination was observed. Agglutination was evaluated with naked eye. Agglutination of 50% or greater percentage of red blood cells was evaluated as positive. Agglutinating activity was given by agglutination titer, i.e., the protein concentration of maximum diluent showing agglutinating activity.
In this Example, trypsin-treated rabbit red blood cells (TRBC) were used as red blood cells. TRBC was prepared as follows. First, 2 ml of blood was collected from the ear of a rabbit kept in laboratory. The blood sample was washed 3 times with about 50 ml of saline, and was supplemented with 50 ml of saline to obtain a 2% rabbit blood cell suspension. The solution was supplemented with 1/10 volume of 0.5% trypsin in saline, and was allowed to stand at 37° C. for 1.5 hours. The trypsin-treated red blood cells were then washed 3 times with saline, and were supplemented with 45 ml of saline to obtain a 2% suspension of trypsin-treated rabbit erythrocytes (or blood cells) (TRBC).
Hemagglutination-inhibition test was performed according to the following procedure. First, each 25 μl of serially two-fold dilutions of sugar solution in saline was placed on a micro titer plate. The concentration of the original solutions of sugars examined was 100 mM for monosaccharides and oligosaccharides, and 2 mg/ml for glycoproteins. Each solution was mixed with 25 μl of BML-17 solution that had been adjusted to an agglutination titer of 4, and allowed to stand for 1.5 hours at room temperature after gentle stirring. Then, 25 μl of TRBC was added, and the mixture was allowed to stand for 2 hours at room temperature to observe hemagglutination inhibitory capability. The presence or absence of hemagglutination inhibitory capability was determined by naked eye. The test was positive when no hemagglutination occurred in about 100% of the red blood cells.
The hemagglutination inhibition test used D-glucose, D-galactose, D-mannose, N-acetyl-D-glucosamine, N-acetyl-D-galactosamine, D-xylose, L-fucose, fructose, lactose, and raffinose as monosaccharides and oligosaccharides. As glycoproteins, mucin (bovine submaxillary gland) and asialomucin, fetuin (type III, calf serum) and asialofetuin, transferrin (human) and asialotransferrin, α1-acid glycoprotein (human) and alialo-α1-acid glycoprotein, and yeast mannan were used.

[1] = tested on: chicken egg yolk antibody (chicken IgY antibody); assay: Search for lectins that bind to chicken egg yolk antibody by SPR (Biacore 2000); type: binding; details: chicken IgY immobilized as ligand
Source text: Assessment was made as to affinity of the different types of lectins and chicken egg yolk antibody (chicken IgY antibody). Briefly, using Biacore 2000 (BIACORE) that employs the principle of surface plasmon resonance method (hereinafter, “SPR method”), chicken egg yolk antibodies (chicken IgY antibodies) were immobilized as ligands on a sensor chip, and measurements were made according to manuals using each type of lectin solution as an analyte. The SPR technique allows for measurement of specific interactions between biomolecules both quickly and quantitatively, without labeling the biomolecules. According to this technique, the ligands are immobilized on a surface of the sensor chip, which is then supplemented with a solution of substance (analyte) that acts on the ligand. Slight changes in mass caused by the binding and dissociation of the molecules are then detected as changes in SPR signals. The mass change is represented by resonance unit (RU). One thousand RU is equivalent to a change in reflection angle of 0.1° caused by resonance, and it means that the analyte has bound to the ligand at 1 ng/mm^2. The surface of the sensor chip is coated with dextran, and the ligands are immobilized primarily via carboxyl groups that have been introduced into the dextran.
Note that, as permitted, the lectins tested as analytes were selected to have different sugar binding specificity. The chicken egg yolk antibody (chicken IgY antibodies) tested as ligands were obtained by purification from egg yolk, using Eggcellent Chicken IgY Purification Kit (Pierce Chem. Co. USA).

[2] = tested on: chicken egg yolk antibody (chicken IgY antibody); assay: SPR kinetics analysis of affinity between lectins and immobilized chicken egg yolk antibody; type: binding; details: lectin as analyte
Experimental: Immobilization was performed according to manuals. Specifically, Taka-amylase A was immobilized using a surface thiol coupling method, and asialofetuin, bovine tyroglobulin, antibody, and BSA were immobilized using an amine coupling method. Each sample was immobilized in an amount within a range of 1000 RU to 1500 RU as adjusted by a manual injection method. Purity of the glycoprotein was confirmed by SDS-PAGE or MALDI-TOF-MS.
Affinity between each glycoprotein and each lectin was analyzed by SPR technique. Prior to analysis, preliminary analyses were made to assess analysis methods. […] Approximate KD values were calculated from a resulting sensorgram, and five or more steps of two-fold series dilutions of analyte (lectin) were prepared at target concentrations of 0.1 to 10 KD [M]. An analysis program was created using “Customized Application” according to the manual, and a subtraction function was used in which subtraction was made from flow cells that had glycoproteins immobilized thereon, from among four flow cells in the sensor chip. […] Under this analysis program, each analyte (lectin) solution was flown on the sensor chip at a flow rate of 30 μl/min for 3 minutes, and buffer was flown for 3 minutes to measure the amount of lectin that had bonded/dissociated. Note that, an increase in RU during the time period from 10 seconds before addition of the analyte and to 10 seconds before the end of addition of analyte was given as the amount of bonding. A decrease in RU in the time period from 10 seconds after the addition of buffer to 10 seconds before the end of addition of buffer was given as the amount of dissociation.
Next, the sensor chip was washed with 0.5 M D-mannose, 10 mM glycine-HCl (pH 4.0), 50 mM HCl, and 10 mM NaOH for reproduction. Concerning the resulting sensorgram, the bonding phase and dissociation phase were fitted together with the curve to determine a bonding rate constant Ka, a dissociation rate constant kd, an affinity constant KA, and a dissociation constant KD.
Table 1 represents affinity constants of chicken egg yolk antibody and the various lectins. Table 1 represents bonding rate constant Ka (M^−1s^−1), dissociation rate constant Kd (s^−1), affinity constant KA (M^−1), and dissociation constant KD (M). The greater the affinity constant, the greater the affinity (stronger binding).

bovine tyroglogulin = biological target: T1, bovine tyroglogulin (Bos taurus, UniProt P01267); assay: Elutability of lectins bound to a bovine tyroglobulin-immobilized chip (SPR); type: binding, cattle; details: 0.5 M D-mannose
T1 construct: purchased SIGMA
T1 sequence (P01267 20-2769): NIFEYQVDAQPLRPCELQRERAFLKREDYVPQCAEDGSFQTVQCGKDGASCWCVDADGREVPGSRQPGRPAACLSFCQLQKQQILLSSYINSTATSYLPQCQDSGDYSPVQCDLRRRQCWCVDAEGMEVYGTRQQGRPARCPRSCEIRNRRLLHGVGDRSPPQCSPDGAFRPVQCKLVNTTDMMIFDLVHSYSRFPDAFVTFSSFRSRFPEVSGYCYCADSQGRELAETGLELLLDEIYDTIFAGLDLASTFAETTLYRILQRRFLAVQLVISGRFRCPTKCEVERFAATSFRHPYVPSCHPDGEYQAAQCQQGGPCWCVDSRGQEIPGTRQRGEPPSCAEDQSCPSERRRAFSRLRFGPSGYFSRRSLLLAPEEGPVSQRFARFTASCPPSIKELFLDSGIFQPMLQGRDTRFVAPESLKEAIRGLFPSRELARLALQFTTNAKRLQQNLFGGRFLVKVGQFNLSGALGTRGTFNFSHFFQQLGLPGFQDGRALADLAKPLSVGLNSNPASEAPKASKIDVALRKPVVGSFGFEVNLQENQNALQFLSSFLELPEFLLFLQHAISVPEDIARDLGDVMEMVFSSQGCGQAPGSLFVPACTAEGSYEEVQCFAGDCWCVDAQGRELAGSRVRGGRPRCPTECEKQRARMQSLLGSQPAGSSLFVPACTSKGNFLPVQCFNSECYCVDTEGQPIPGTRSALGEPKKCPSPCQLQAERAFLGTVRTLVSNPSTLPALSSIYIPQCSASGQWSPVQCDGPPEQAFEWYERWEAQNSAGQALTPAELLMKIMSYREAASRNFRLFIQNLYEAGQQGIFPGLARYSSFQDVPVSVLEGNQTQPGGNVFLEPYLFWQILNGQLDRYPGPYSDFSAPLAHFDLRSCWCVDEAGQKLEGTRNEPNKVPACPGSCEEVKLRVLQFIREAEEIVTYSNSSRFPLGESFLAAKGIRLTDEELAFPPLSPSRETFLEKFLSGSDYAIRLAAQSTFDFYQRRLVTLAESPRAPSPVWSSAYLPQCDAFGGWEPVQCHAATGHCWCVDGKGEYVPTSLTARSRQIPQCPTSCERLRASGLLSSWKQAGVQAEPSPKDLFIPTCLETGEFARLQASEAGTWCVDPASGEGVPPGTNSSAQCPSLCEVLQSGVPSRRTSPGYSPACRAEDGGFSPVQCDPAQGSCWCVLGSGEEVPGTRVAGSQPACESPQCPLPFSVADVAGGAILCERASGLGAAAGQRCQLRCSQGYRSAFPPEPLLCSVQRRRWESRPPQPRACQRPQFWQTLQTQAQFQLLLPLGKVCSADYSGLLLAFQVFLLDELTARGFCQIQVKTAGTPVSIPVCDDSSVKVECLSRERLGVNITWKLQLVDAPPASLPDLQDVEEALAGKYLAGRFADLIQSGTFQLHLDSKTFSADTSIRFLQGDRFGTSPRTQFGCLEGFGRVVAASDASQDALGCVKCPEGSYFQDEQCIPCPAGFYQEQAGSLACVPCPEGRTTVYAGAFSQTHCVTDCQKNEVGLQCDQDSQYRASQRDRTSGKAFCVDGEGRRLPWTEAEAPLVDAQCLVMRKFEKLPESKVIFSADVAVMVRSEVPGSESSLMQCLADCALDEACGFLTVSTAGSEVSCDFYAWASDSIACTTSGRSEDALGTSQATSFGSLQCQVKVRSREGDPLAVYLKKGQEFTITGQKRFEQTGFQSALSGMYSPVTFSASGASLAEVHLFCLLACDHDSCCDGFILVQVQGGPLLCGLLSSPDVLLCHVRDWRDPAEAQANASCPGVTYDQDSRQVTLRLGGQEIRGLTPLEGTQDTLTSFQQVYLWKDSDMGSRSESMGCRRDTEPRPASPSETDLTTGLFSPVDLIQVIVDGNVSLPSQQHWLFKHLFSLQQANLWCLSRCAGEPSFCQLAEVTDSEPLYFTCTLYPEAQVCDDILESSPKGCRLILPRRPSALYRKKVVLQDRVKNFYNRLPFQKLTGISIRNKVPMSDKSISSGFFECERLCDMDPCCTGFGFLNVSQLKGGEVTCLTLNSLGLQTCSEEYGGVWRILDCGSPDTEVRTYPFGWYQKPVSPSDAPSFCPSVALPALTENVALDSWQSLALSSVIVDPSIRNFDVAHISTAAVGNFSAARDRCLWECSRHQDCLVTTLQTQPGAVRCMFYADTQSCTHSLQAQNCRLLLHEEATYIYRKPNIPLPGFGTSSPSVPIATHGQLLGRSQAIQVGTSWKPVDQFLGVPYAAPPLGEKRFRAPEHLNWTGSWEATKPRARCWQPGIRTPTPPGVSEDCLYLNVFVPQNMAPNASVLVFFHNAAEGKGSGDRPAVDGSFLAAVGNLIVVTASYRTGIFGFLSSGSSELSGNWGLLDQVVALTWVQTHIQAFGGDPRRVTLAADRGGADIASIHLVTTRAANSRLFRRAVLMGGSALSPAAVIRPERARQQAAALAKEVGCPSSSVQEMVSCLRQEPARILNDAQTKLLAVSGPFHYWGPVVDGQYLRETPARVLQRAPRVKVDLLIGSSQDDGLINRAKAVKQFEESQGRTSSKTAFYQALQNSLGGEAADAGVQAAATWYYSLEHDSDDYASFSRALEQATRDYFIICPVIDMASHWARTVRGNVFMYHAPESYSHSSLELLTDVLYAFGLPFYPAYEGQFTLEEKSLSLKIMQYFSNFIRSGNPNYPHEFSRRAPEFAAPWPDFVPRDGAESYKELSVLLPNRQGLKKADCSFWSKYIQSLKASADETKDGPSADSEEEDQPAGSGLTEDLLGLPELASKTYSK
Source text: As in the case of chicken egg yolk antibody, a chip having immobilized thereon bovine tyroglogulin including the high-mannose-type sugar chain and the complex-type sugar chain was used to assess elutability of lectins that had bound to the chip. Note that, tyroglogulin was immobilized in a maximum amount (12,095 RU) on CM5 sensor chip, so as to make it easier to confirm specific binding and elution. Each solution of analyte (lectin) contained in HBS-EP (equilibriated) buffer (BIACORE) at a concentration of 100 μg/ml was flown at a flow rate of 5 μl/min until the amount of bonding reached equilibrium. After washing with HBS-EP buffer and the dissociation has reached equilibrium, 50 μl of 0.5 M D-mannose in the same buffer was injected. Based on the sensorgram, the amount of binding (RU) at the time when 50 μl (5 μg) of analyte (lectin) solution was injected was measured. Then, the amount of residual bonding (RU) of analyte (lectin) after buffer washing and elution with 50 μl of 0.5 M D-mannose was measured. The amount of residual bonding was given by percentage with respect to the maximum amount of bonding.
FIG. 3 represents the amount of residual bonding (%) of analyte (lectin) after the bonding, washing, and elution with 0.5 M D-mannose. FIG. 3 represents relative amounts of lectin that remain bonded to the chip after the dissociation with HBS-EP buffer, and relative amounts of lectin that remain after the elution with 0.5M D-mannose, when the amount of lectin binding to the bovine tyroglobulin immobilized chip exposed to the respective lectins is taken at 100%.

[3] = monosaccharides and oligosaccharides

Molecule: OC[C@H]1O[C@@H](O[C@H]2[C@H](O)[C@@H](O)C(O)O[C@@H]2CO)[C@H](O)[C@@H](O)[C@H]1O (some centres unmarked) [Lactose]
- Minimum inhibitory concentration (BML-17; [3]): — (No inhibition at 100 mM of mono- or oligosaccharides)

Molecule: O=C[C@H](O)[C@@H](O)[C@H](O)[C@H](O)CO [D-Glucose]
- Minimum inhibitory concentration (BML-17; [3]): — (No inhibition at 100 mM of mono- or oligosaccharides)

Molecule: O=C(CO)[C@@H](O)[C@H](O)[C@H](O)CO [Fructose]
- Minimum inhibitory concentration (BML-17; [3]): — (No inhibition at 100 mM of mono- or oligosaccharides)

Molecule: CC(=O)N[C@H]1C(O)O[C@H](CO)[C@@H](O)[C@@H]1O (stereo partly drawn) [N-Acetyl-D-glucosamine]
- Minimum inhibitory concentration (BML-17; [3]): — (No inhibition at 100 mM of mono- or oligosaccharides)

Molecule: αl-Acid glycoprotein: α1-acid glycoprotein (human)
- Minimum inhibitory concentration (BML-17; glycoproteins): — (No inhibition at 100 mM of mono- or oligosaccharides, or at 2 mg/ml of glycoproteins)

Molecule: OC[C@H]1O[C@H](OC[C@H]2O[C@H](O[C@]3(CO)O[C@H](CO)[C@@H](O)[C@@H]3O)[C@H](O)[C@@H](O)[C@@H]2O)[C@H](O)[C@@H](O)[C@H]1O [Raffinose]
- Minimum inhibitory concentration (BML-17; [3]): — (No inhibition at 100 mM of mono- or oligosaccharides)

Molecule: Asialotransferrin: asialo form of transferrin (human)
- Inhibition of agglutinating activity of BML-17 (in words) (BML-17): inhibition occurred
- Minimum inhibitory concentration (BML-17; glycoproteins): 1000 µg/mL

Molecule: CC(=O)N[C@H]1C(O)O[C@H](CO)[C@H](O)[C@@H]1O (stereo partly drawn) [N-Acetyl-D-galactosamine]
- Minimum inhibitory concentration (BML-17; [3]): — (No inhibition at 100 mM of mono- or oligosaccharides)

Molecule: C[C@H](O)[C@@H](O)[C@@H](O)[C@H](O)C=O [L-Fucose]
- Minimum inhibitory concentration (BML-17; [3]): — (No inhibition at 100 mM of mono- or oligosaccharides)

Molecule: O=C[C@H](O)[C@@H](O)[C@@H](O)[C@H](O)CO [D-Galactose]
- Minimum inhibitory concentration (BML-17; [3]): — (No inhibition at 100 mM of mono- or oligosaccharides)

Molecule: Mucin
- Inhibition of agglutinating activity of BML-17 (in words) (BML-17): inhibition occurred
- Minimum inhibitory concentration (BML-17; glycoproteins): 250 µg/mL

Molecule: O=C[C@H](O)[C@@H](O)[C@H](O)CO [D-Xylose]
- Minimum inhibitory concentration (BML-17; [3]): — (No inhibition at 100 mM of mono- or oligosaccharides)

Molecule: Transferrin: transferrin (human), glycoprotein
- Inhibition of agglutinating activity of BML-17 (in words) (BML-17): inhibition occurred
- Minimum inhibitory concentration (BML-17; glycoproteins): 2000 µg/mL

B1: UEA-I: Ulex europaeus-derived lectin (protein)
chain: SDDLSFKFKNFSQNGKDLSFQGDASVIETGVLQLNKVGNNLPDETGGIARYIAPIHIWNCNTGEVASFITSFSFFMETSANPKAATDGLTFFLAPPDSPLRRAGGYFGLFEDTKDNDSSYQTVAVEFDTIGSPVNFDDPGFPHIGIDVNRVKSINAERWNKRYGLNNVANVEIIYEASSKTLTASLTYPSDQTSISVTSIVDLKEILPEWVSVGFSGGTYIGRQATHEVLNWYFTSNLINTNS
- Binding to chicken egg yolk antibody (in words) [1]: binding to chicken egg yolk antibody (chicken IgY antibodies) occurs

B2: Fetuin: fetuin (type III, calf serum) (protein)
chain: IPLDPVAGYKEPACDDPDTEQAALAAVDYINKHLPRGYKHTLNQIDSVKVWPRRPTGEVYDIEIDTLETTCHVLDPTPLANCSVRQQTQHAVEGDCDIHVLKQDGQFSVLFTKCDSSPDSAEDVRKLCPDCPLLAPLNDSRVVHAVEVALATFNAESNGSYLQLVEISRAQFVPLPVSVSVEFAVAATDCIAKEVVDPTKCNLLAEKQYGFCKGSVIQKALGGEDVRVTCTLFQTQPVIPQPQPDGAEAEAPSAVPDAAGPTPSAAGPPVASVVVGPSVVAVPLPLHRAHYDLRHTFSGVASVESSSGEAFHVGKTPIVGQPSIPGGPVRLCPGRIRYFKI
- Inhibition of agglutinating activity of BML-17 (in words) (BML-17): inhibition occurred
- Minimum inhibitory concentration (BML-17; glycoproteins): 1000 µg/mL

B3: Asialofetuin: asialo form of fetuin (protein)
chain: B2 chain
- Inhibition of agglutinating activity of BML-17 (in words) (BML-17): inhibition occurred
- Minimum inhibitory concentration (BML-17; glycoproteins): 500 µg/mL

B4: ESA-2: Eucheuma serra-derived lectin (protein)
chain: GRYTVQNQWGGSSAPWNDAGLWILGSRGNQNVMAVDVNSSDGGANLNGTMTYSGEGPIGFKGARRGESNVYDVENQWGGSSAPWHAGGQFVIGSRSGQGVLAVNITSSDGGKTLTGTMTYEREGPIGFKGTQSGGDTYNVENQWGGSSAPWNKAGIWALGDRSGQAMIAMDVSSSDGGKTLEGTMQYKGEGPIGFRGKLSGANNYSVENQWGGSSAPWNAAGDWLIGDRHNQNITAVKVSSDNDGKNLDGTCTYEREGPIGFKGVATS
- Binding to chicken egg yolk antibody (in words) [1]: binding to chicken egg yolk antibody (chicken IgY antibodies) occurs
- Affinity Constant KA [2]: 7.73e+07 M⁻¹
- Binding Rate Constant ka [2]: 352000 M⁻¹ s⁻¹
- Dissociation Rate Constant kd [2]: 0.00455 s⁻¹
- Elution of bound lectin with D-mannose (bovine tyroglogulin): not eluted with D-mannose or any other eluents

From US7867732B2, “Isolated polypeptide binding to a sugar chain, polynucleotide encoding the polypeptide and use of the polypeptide and polynucleotide” (National University of Corporation Hiroshima University, priority 2005, dated 2011)
